Patent US20080145313A1, “Compositions and Methods for the Treatment and Prevention of Neoplastic Disorders” (Genesis Research & Development Corporation Limited, priority 2006, published 2008)
Marks after values point to notes of the source that are not given here.

Experiments:
[1] = tested on: target transcript mRNA in A549 cells; experiment: Level of mRNA of target transcript in A549 cells by quantitative RT-PCR (Tables 12 and 13); assay type: cell-based, human; conditions: 24 h post-transfection; for mRNA knockdown of transporter gene target transcript, 10 nM: 10 nM siRNA
How it was run: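 Target mRNA was measured by SYBR Green quantitative RT-PCR using random-primed cDNA, normalised to HPRT and Lamin. Samples came from A549 cells 24 h post-transfection with 0.1, 1.0 or 10 nM siRNA.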

HCT-116 p53 null cells = experiment: Growth inhibition of siRNA-transfected p53 null HCT-116 cells, SYBR Green I DNA content; assay type: cell-based; conditions: for growth inhibition, HCT-116 −/−p53 cells: standardized against control siRNA
Method: A549 cells (human lung cancer cell line; ATCC No. CCL-185), SK-MeI-5 cells (human melanoma cell line; ATCC No. HTB-70), MCF-7 cells (human adenocarcinoma cell line; ATCC No. HTB-22), HCT-116 cells (colorectal carcinoma; ATCC CCL-247) and HCT-116 p53 null cells (derived from ATCC No. CCL-247; Bunz et al., Science 282:1497-1501, 1998) were cultured in RPMI 1640 medium with 10% v/v heat-inactivated fetal calf serum (FCS). Cells were seeded at a density of 5×10^4 cells/cm^2 in multi-well tissue culture plates. Sequences of Stealth™ siRNA duplexes (Invitrogen) targeting human ribonucleotide reductase subunit 1 (SEQ ID NO: 22) and subunit 2 (SEQ ID NO; 38) are given in SEQ ID NO: 4830-4832 (DNA), and SEQ ID NO: 5136-5138 (RNA) for RRM1, and SEQ ID NO: 5306-5308 (DNA), and SEQ ID NO: 5303-5305 (RNA) for RRM2. siRNAs were transfected at different concentrations into cells using Lipofectamine™ RNAiMAX transfection reagent (Invitrogen). Non-specific siRNA (SEQ ID NO: 4804 and 4805 (DNA), and SEQ ID NO: 5301 and 5302 (RNA)) were used as controls. The cellular DNA content was measured using a SYBR Green I-based fluorometric assay at 24, 48, 72 and 96 hours after transfection (120 hours for the MCF-7 cells), as follows. At the indicated time points following reverse transfection, cells were harvested and frozen at −80° C. overnight. Cells were thawed and cell lysis buffer (phosphate-buffered saline (PBS) containing 1% Triton X-100, pH 7) and SYBR Green I (1:10^5 V/V; Invitrogen) was added to the wells and incubated overnight in the dark at 4° C.
The following day, cell lysates were mixed thoroughly, and DNA fluorescence was measured with a Wallac Victor^2 plate reader (Turku, Finland) set at an excitation frequency of 485 nm and measuring emission at 535 nm.
To determine the effect of the p53-status of cells on RRM1 and RRM2 knockdown, growth inhibition of wild type (wt) HCT-116 and p53 null HCT-116 cells by RRM1 and RRM2-targeted siRNA were determined. Cells were reverse transfected with 1.0 and 10 nM RRM1-3 (SEQ ID NO: 4832 (DNA), and SEQ ID NO: 5138 (RNA)), 1.0 and 10 nM RRM2-2 (SEQ ID NO: 5307 (DNA), and SEQ ID NO: 5304 (RNA)) or 10 nM control siRNA (SEQ ID NO: 4804 (DNA), and SEQ ID NO: 5301 (RNA)), and growth measured daily for up to 4 days post transfection.
siRNA-mediated RNAi was also determined on a panel of different cell lines. A549, SK-MeI-5, wt HCT-116, HCT-116−/−p53 and MCF-7 cells were transfected with 10 nM siRNAs targeting YBX-1 and growth inhibition determined as described above. The YBX1 siRNAs are given in SEQ ID NO: 4981 to 4985 (DNA) and SEQ ID NO: 5276-5280 (RNA). A non-specific siRNA (SEQ ID NO: 4804 (DNA) and SEQ ID NO: 5301 (RNA)) was used as control. Growth inhibition by the siRNAs, given in Table 14, was standardized against the inhibition obtained with the control siRNA.

Row | Substance | mRNA knockdown of transporter gene target transcript, 0.1 nM ([1]; 0.1 nM siRNA) | mRNA knockdown of transporter gene target transcript, 1 nM ([1]; 1 nM siRNA) | mRNA knockdown of transporter gene target transcript, 10 nM [1] | growth inhibition, HCT-116 −/−p53 cells (HCT-116 p53 null cells; 1 nM siRNA) | further results
1 | SEQ ID NO: 4924: siRNA targeting SLC16A1 (MCT1) (chain 1 TTAGACTTATCTTTCCCTGCCTTGG; chain 2 UUAGACUUAUCUUUCCCUGCCUUGG; chemistry not given here; one strand in two spellings) | + (50-70% mRNA knockdown) | ++ (70-90% mRNA knockdown) | ++ (70-90% mRNA knockdown) |  | 
2 | SEQ ID NO: 4932: siRNA targeting SLC29A1 (ENT1) (chain 1 TGATAAAGTAGCCGAAGGCACTTTC; chain 2 UGAUAAAGUAGCCGAAGGCACUUUC; chemistry not given here; one strand in two spellings) | ++ (70-90% mRNA knockdown) | ++ (70-90% mRNA knockdown) | ++ (70-90% mRNA knockdown) |  | 
3 | SEQ ID NO: 4982: siRNA targeting YBX1 (chain 1 TTTGCTGGTAATTGCGTGGAGGACC; chain 2 UUUGCUGGUAAUUGCGUGGAGGACC; chemistry not given here; one strand in two spellings) |  |  |  |  | growth inhibition, HCT-116 −/−p53 cells (HCT-116 p53 null cells; 10 nM siRNA): +++ (At least 70% inhibition)
4 | SEQ ID NO: 4984: siRNA targeting YBX1 (chain 1 CAAGGTAGACCAGTGAGGCAGAATA; chain 2 CAAGGUAGACCAGUGAGGCAGAAUA; chemistry not given here; one strand in two spellings) |  |  |  | +* (At least 20% inhibition) | 
5 | SEQ ID NO: 4985: siRNA targeting YBX1 (chain 1 CAGCCTAGAGAGGACGGCAATGAAG; chain 2 CAGCCUAGAGAGGACGGCAAUGAAG; chemistry not given here; one strand in two spellings) |  |  |  | −* (No inhibition) | 
6 | SEQ ID NO: 5307: Stealth siRNA targeting RRM2 (chain 1 AATTCATCCCAATGAGCTTCACAGG; chain 2 AAUUCAUCCCAAUGAGCUUCACAGG; Stealth siRNA, chemical pattern not given here; one strand in two spellings) |  |  |  |  | mRNA knockdown of energy and metabolism gene target transcript, 0.1 nM ([1]; 0.1 nM siRNA): + (50-70% mRNA knockdown); mRNA knockdown of energy and metabolism gene target transcript, 1 nM ([1]; 1 nM siRNA): ++ (70-90% mRNA knockdown); growth inhibition, p53 null HCT-116 (HCT-116 p53 null cells; 1.0 and 10 nM siRNA, up to 4 days, compared with p53 wt): more growth inhibitory
